In ChEMBL document CHEMBL1201862, “PubChem BioAssay data set” (2004):
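Tested at 5 concentrations; 48 h exposure; 96-well plates; endpoints linearly interpolated, else capped at highest concentration. GI50 is the concentration that inhibits growth by half.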 Activity calls are given as the source filed them. Rule as the data show it: active = GI50 up to about 1.1 µM and inactive = higher.

What was measured:
Assay in all cases: growth of human tumour cells (NCI), 48 h
[1] = system: NCI-H23
[2] = system: NCI-H522
[3] = system: RPMI-8226
[4] = system: UACC-62
[5] = system: COLO 205
[6] = system: MDA-MB-231
[7] = system: CAKI-1
[8] = system: SF-268
[9] = system: T47D
[10] = system: SK-MEL-2
[11] = system: HOP-62
[12] = system: A549
[13] = system: OVCAR-8
[14] = system: SK-MEL-28
[15] = system: HCT-15
[16] = system: SF-295
[17] = system: HOP-92
[18] = system: DU-145
[19] = system: Hs-578T
[20] = system: OVCAR-3
[21] = system: Malme-3M
[22] = system: MCF7
[23] = system: SN12C
[24] = system: EKVX
[25] = system: SF-539
[26] = system: SW-620
[27] = system: HT-29
[28] = system: MOLT-4
[29] = system: BT-549
[30] = system: SNB-19
[31] = system: ACHN
[32] = system: HCC 2998
[33] = system: UO-31
[34] = system: LOX IMVI
[35] = system: TK-10
[36] = system: OVCAR-4
[37] = system: IGROV-1
[38] = system: SK-MEL-5
[39] = system: HCT-116
[40] = system: NCI-H226
[41] = system: SR
[42] = system: SK-OV-3
[43] = system: KM12
[44] = system: UACC-257
[45] = system: NCI-H460
[46] = system: SNB-75
[47] = system: K562
[48] = system: NCI/ADR-RES
[49] = system: PC-3
[50] = system: U-251
[51] = system: MDA-N
[52] = system: 786-0
[53] = system: CCRF-CEM
[54] = system: M14
[55] = system: OVCAR-5
[56] = system: MDA-MB-435
[57] = system: HL-60
[58] = system: RXF 393

Measured: GI50

COc1ccc2c(c1)-c1c(c3ccccc3n1CCN1CCOCC1)CC2
25.9 µM: [15]
active: [35] 0.0363 µM
inactive: [1] 21.7 µM | [2] 15.3 µM | [3] 19.4 µM | [4] 18.8 µM | [5] 16 µM | [6] 18.9 µM | [7] 17.5 µM | [8] 19 µM | [9] 21.5 µM | [10] 11 µM | [11] 20.1 µM | [12] 27.1 µM | [13] 16 µM | [14] 55.1 µM | [16] 16 µM | [17] 36.6 µM | [18] 58.9 µM | [19] 13.5 µM | [20] 18.2 µM | [21] 14.6 µM | [22] 32.3 µM | [23] 28.2 µM | [24] 16.4 µM | [25] 25 µM | [26] 32.1 µM | [27] 13.1 µM | [28] 13 µM | [29] 23 µM | [30] 21 µM | [31] 35.7 µM | [32] 18.2 µM | [33] 22.6 µM | [34] 16.6 µM | [36] 56.6 µM | [37] 5.47 µM | [38] 14.5 µM | [39] 22.4 µM | [40] 11.7 µM | [41] 19.1 µM | [42] 53.1 µM | [43] 11.5 µM | [44] 36.7 µM | [45] 16.8 µM | [46] 10.8 µM | [47] 15.6 µM | [48] 11.7 µM | [49] 14.8 µM | [50] 26 µM | [51] 36.7 µM | [52] 22.6 µM | [53] 22.4 µM | [54] 35 µM | [55] 35.2 µM | [56] 34.5 µM

COC1OC(COC(=O)NCCCCC(=O)C(F)(F)F)C(O)C(O)C1O (centres undefined)
> 100 µM: [15]
inactive: [1] > 100 µM | [3] > 100 µM | [4] > 100 µM | [5] > 100 µM | [6] > 100 µM | [7] > 100 µM | [8] > 100 µM | [9] > 100 µM | [10] > 100 µM | [57] > 100 µM | [11] > 100 µM | [12] > 100 µM | [14] > 100 µM | [16] > 100 µM | [17] > 100 µM | [18] > 100 µM | [19] > 100 µM | [20] > 100 µM | [21] > 100 µM | [22] > 100 µM | [23] > 100 µM | [25] > 100 µM | [26] > 100 µM | [27] > 100 µM | [28] > 100 µM | [29] > 100 µM | [30] > 100 µM | [31] > 100 µM | [32] > 100 µM | [33] > 100 µM | [34] > 100 µM | [35] > 100 µM | [36] > 100 µM | [37] > 100 µM | [38] > 100 µM | [39] > 100 µM | [58] > 100 µM | [41] > 100 µM | [42] > 100 µM | [43] > 100 µM | [44] > 100 µM | [45] > 100 µM | [46] > 100 µM | [47] > 100 µM | [48] > 100 µM | [49] > 100 µM | [50] > 100 µM | [51] > 100 µM | [52] > 100 µM | [53] > 100 µM | [54] > 100 µM | [55] > 100 µM | [56] > 100 µM

COc1cc(/C=C2\N=C(c3ccccc3)N(c3nc4cc(C)c(C)cc4s3)C2=O)ccc1O
45.6 µM: [15]
inactive: [3] 20.8 µM | [4] 26.6 µM | [5] 40.1 µM | [6] 66.1 µM | [7] 36.6 µM | [8] 44.8 µM | [9] 44.1 µM | [10] 26.3 µM | [57] 18.7 µM | [11] 74.1 µM | [12] 40.7 µM | [13] 47.4 µM | [14] 71.3 µM | [16] 66.8 µM | [17] 21.9 µM | [18] 61.7 µM | [19] 30.8 µM | [20] 23.7 µM | [22] 11.2 µM | [23] 25.8 µM | [24] 23.3 µM | [25] 29.4 µM | [26] 35.5 µM | [27] 31.1 µM | [28] 2.75 µM | [29] 46.3 µM | [30] 74 µM | [31] 28.3 µM | [32] 27 µM | [33] 40.3 µM | [34] 30.5 µM | [35] 79.4 µM | [36] 20.7 µM | [37] 21.4 µM | [38] 31.3 µM | [39] 19.3 µM | [58] 20.4 µM | [41] 19.9 µM | [42] > 100 µM | [43] 17.8 µM | [44] 21.3 µM | [45] 27.4 µM | [46] 24.9 µM | [47] 35.3 µM | [48] 42.3 µM | [49] 30.3 µM | [50] 30.8 µM | [51] 15.2 µM | [52] 43 µM | [53] 20.5 µM | [54] 47.4 µM | [55] 40.6 µM | [56] 12.6 µM
